In the supplement of paper PMC10307832:

Tests used:
Experiment in all cases: relative viability (nuclei count vs DMSO), 5 days (fraction); higher = more cells survive
[1] = compound: COc1cccc2cc(-c3nc([C@H]4CC[C@H](C(=O)O)CC4)n4ncnc(N)c34)[nH]c12 [OSI-027] + Nc1ncn([C@H]2C[C@H](O)[C@@H](CO)O2)c(=O)n1 [Decitabine] (partner 2 µM)
In short: (§1)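 Values are medians from duplicate plates. Each reflects relative viability, defined as the nuclei count of treated wells over that of vehicle wells. Lung cancer cell lines in 1536-well plates were pin-tool dosed one day after seeding with one drug alone or with a fixed anchor-drug dose plus five library-drug doses (not always all listed) in √10 steps, then fixed, stained and imaged at 4× after 5 days.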

[2] = compound: COc1cccc2cc(-c3nc([C@H]4CC[C@H](C(=O)O)CC4)n4ncnc(N)c34)[nH]c12 [OSI-027] + O=C(c1cc(Cc2n[nH]c(=O)c3ccccc23)ccc1F)N1CCN(C(=O)C2CC2)CC1 [Olaparib] (partner 8 µM)
In short: as §1

[3] = compound: COc1cccc2cc(-c3nc([C@H]4CC[C@H](C(=O)O)CC4)n4ncnc(N)c34)[nH]c12 [OSI-027] + NC(=O)Nc1cc(-c2cccc(F)c2)sc1C(=O)N[C@H]1CCCNC1 [AZD7762] (partner 0.2 µM)
In short: as §1

[4] = compound: Cc1nc(NC(=O)N2CCC[C@H]2C(N)=O)sc1-c1ccnc(C(C)(C)C(F)(F)F)c1 [Alpelisib] + CC(C)C[C@H](NC(=O)[C@H](Cc1ccccc1)NC(=O)c1cnccn1)B(O)O [Bortezomib] (partner 0.002 µM)
In short: as §1

Cell Line: SK-MES-1
- relative viability ([1]; first compound 0.01 µM): 0.362
- relative viability ([1]; first compound 0.03162 µM): 0.36
- relative viability ([1]; first compound 0.1 µM): 0.304
- relative viability ([1]; first compound 0.3162 µM): 0.307
- relative viability ([1]; first compound 1 µM): 0.223
- relative viability ([2]; first compound 0.01 µM): 0.62
- relative viability ([2]; first compound 0.03162 µM): 0.605
- relative viability ([2]; first compound 0.1 µM): 0.532
- relative viability ([2]; first compound 0.3162 µM): 0.417
- relative viability ([2]; first compound 1 µM): 0.285

Cell Line: SW 900
- relative viability ([3]; first compound 0.01 µM): 0.669
- relative viability ([3]; first compound 0.03162 µM): 0.575
- relative viability ([3]; first compound 0.1 µM): 0.499
- relative viability ([3]; first compound 0.3162 µM): 0.508
- relative viability ([3]; first compound 1 µM): 0.402
- relative viability ([1]; first compound 0.01 µM): 0.438
- relative viability ([1]; first compound 0.03162 µM): 0.402
- relative viability ([1]; first compound 0.1 µM): 0.42
- relative viability ([1]; first compound 0.3162 µM): 0.48
- relative viability ([1]; first compound 1 µM): 0.384
- relative viability ([2]; first compound 0.01 µM): 0.953
- relative viability ([2]; first compound 0.03162 µM): 0.819
- relative viability ([2]; first compound 0.1 µM): 0.931
- relative viability ([2]; first compound 0.3162 µM): 0.823
- relative viability ([2]; first compound 1 µM): 0.519

Cell Line: EBC-1
- relative viability ([2]; first compound 0.01 µM): 0.662
- relative viability ([2]; first compound 0.03162 µM): 0.736
- relative viability ([2]; first compound 0.1 µM): 0.67
- relative viability ([2]; first compound 0.3162 µM): 0.579
- relative viability ([2]; first compound 1 µM): 0.331
- relative viability ([4]; first compound 0.04 µM): 0.574
- relative viability ([4]; first compound 0.1265 µM): 0.559
- relative viability ([4]; first compound 0.4 µM): 0.584
- relative viability ([4]; first compound 1.265 µM): 0.428
- relative viability ([4]; first compound 4 µM): 0.423

Cell Line: NCI-H1944
- relative viability ([3]; first compound 0.01 µM): 0.611
- relative viability ([3]; first compound 0.03162 µM): 0.43
- relative viability ([3]; first compound 0.1 µM): 0.648
- relative viability ([3]; first compound 0.3162 µM): 0.56
- relative viability ([3]; first compound 1 µM): 0.371
- relative viability ([1]; first compound 0.01 µM): 0.427
- relative viability ([1]; first compound 0.03162 µM): 0.46
- relative viability ([1]; first compound 0.1 µM): 0.405
- relative viability ([1]; first compound 0.3162 µM): 0.443
- relative viability ([1]; first compound 1 µM): 0.303
- relative viability ([2]; first compound 0.01 µM): 0.371
- relative viability ([2]; first compound 0.03162 µM): 0.373
- relative viability ([2]; first compound 0.1 µM): 0.422
- relative viability ([2]; first compound 0.3162 µM): 0.355
- relative viability ([2]; first compound 1 µM): 0.265

Cell Line: NCI-H2023
- relative viability ([1]; first compound 0.01 µM): 0.202
- relative viability ([1]; first compound 0.03162 µM): 0.213
- relative viability ([1]; first compound 0.1 µM): 0.2
- relative viability ([1]; first compound 0.3162 µM): 0.207
- relative viability ([1]; first compound 1 µM): 0.149
- relative viability ([2]; first compound 0.01 µM): 0.455
- relative viability ([2]; first compound 0.03162 µM): 0.446
- relative viability ([2]; first compound 0.1 µM): 0.455
- relative viability ([2]; first compound 0.3162 µM): 0.303
- relative viability ([2]; first compound 1 µM): 0.253
- relative viability ([4]; first compound 0.04 µM): 0.926
- relative viability ([4]; first compound 0.1265 µM): 0.952
- relative viability ([4]; first compound 0.4 µM): 0.942
- relative viability ([4]; first compound 1.265 µM): 0.57
- relative viability ([4]; first compound 4 µM): 0.601

Cell Line: NCI-H1299
- relative viability ([2]; first compound 0.01 µM): 1.02
- relative viability ([2]; first compound 0.03162 µM): 0.998
- relative viability ([2]; first compound 0.1 µM): 0.956
- relative viability ([2]; first compound 0.3162 µM): 1.04
- relative viability ([2]; first compound 1 µM): 0.796
- relative viability ([4]; first compound 0.04 µM): 1.05
- relative viability ([4]; first compound 0.1265 µM): 1.08
- relative viability ([4]; first compound 0.4 µM): 1.03
- relative viability ([4]; first compound 1.265 µM): 1.02
- relative viability ([4]; first compound 4 µM): 0.966

Cell Line: COR-L23
- relative viability ([1]; first compound 0.01 µM): 0.482
- relative viability ([1]; first compound 0.03162 µM): 0.474
- relative viability ([1]; first compound 0.1 µM): 0.379
- relative viability ([1]; first compound 0.3162 µM): 0.372
- relative viability ([1]; first compound 1 µM): 0.236
- relative viability ([2]; first compound 0.01 µM): 0.377
- relative viability ([2]; first compound 0.03162 µM): 0.335
- relative viability ([2]; first compound 0.1 µM): 0.208
- relative viability ([2]; first compound 0.3162 µM): 0.401
- relative viability ([2]; first compound 1 µM): 0.279
- relative viability ([4]; first compound 0.04 µM): 0.945
- relative viability ([4]; first compound 0.1265 µM): 0.976
- relative viability ([4]; first compound 0.4 µM): 1.13
- relative viability ([4]; first compound 1.265 µM): 0.798
- relative viability ([4]; first compound 4 µM): 0.802

Cell Line: NCI-H1650
- relative viability ([1]; first compound 0.01 µM): 0.454
- relative viability ([1]; first compound 0.03162 µM): 0.45
- relative viability ([1]; first compound 0.1 µM): 0.471
- relative viability ([1]; first compound 0.3162 µM): 0.308
- relative viability ([1]; first compound 1 µM): 0.314
- relative viability ([2]; first compound 0.01 µM): 0.794
- relative viability ([2]; first compound 0.03162 µM): 0.825
- relative viability ([2]; first compound 0.1 µM): 0.873
- relative viability ([2]; first compound 0.3162 µM): 0.807
- relative viability ([2]; first compound 1 µM): 0.722
- relative viability ([4]; first compound 0.04 µM): 0.201
- relative viability ([4]; first compound 0.1265 µM): 0.22
- relative viability ([4]; first compound 0.4 µM): 0.185
- relative viability ([4]; first compound 1.265 µM): 0.176
- relative viability ([4]; first compound 4 µM): 0.169

Cell Line: NCI-H522
- relative viability ([3]; first compound 0.01 µM): 0.807
- relative viability ([3]; first compound 0.03162 µM): 0.89
- relative viability ([3]; first compound 0.1 µM): 0.68
- relative viability ([3]; first compound 0.3162 µM): 0.672
- relative viability ([3]; first compound 1 µM): 0.612
- relative viability ([1]; first compound 0.01 µM): 0.705
- relative viability ([1]; first compound 0.03162 µM): 0.724
- relative viability ([1]; first compound 0.1 µM): 0.626
- relative viability ([1]; first compound 0.3162 µM): 0.629
- relative viability ([1]; first compound 1 µM): 0.582
- relative viability ([2]; first compound 0.01 µM): 0.544
- relative viability ([2]; first compound 0.03162 µM): 0.668
- relative viability ([2]; first compound 0.1 µM): 0.524
- relative viability ([2]; first compound 0.3162 µM): 0.679
- relative viability ([2]; first compound 1 µM): 0.449

Cell Line: NCI-H1648
- relative viability ([3]; first compound 0.01 µM): 0.813
- relative viability ([3]; first compound 0.03162 µM): 0.572
- relative viability ([3]; first compound 0.3162 µM): 0.705
- relative viability ([3]; first compound 1 µM): 0.667
- relative viability ([1]; first compound 0.01 µM): 0.477
- relative viability ([1]; first compound 0.03162 µM): 0.51
- relative viability ([1]; first compound 0.3162 µM): 0.445
- relative viability ([1]; first compound 1 µM): 0.45
- relative viability ([2]; first compound 0.01 µM): 1.06
- relative viability ([2]; first compound 0.03162 µM): 0.725
- relative viability ([2]; first compound 0.3162 µM): 0.639
- relative viability ([2]; first compound 1 µM): 0.397

Cell Line: A549
- relative viability ([1]; first compound 0.01 µM): 0.301
- relative viability ([1]; first compound 0.03162 µM): 0.256
- relative viability ([1]; first compound 0.1 µM): 0.272
- relative viability ([1]; first compound 0.3162 µM): 0.319
- relative viability ([1]; first compound 1 µM): 0.102
- relative viability ([2]; first compound 0.01 µM): 0.465
- relative viability ([2]; first compound 0.03162 µM): 0.258
- relative viability ([2]; first compound 0.1 µM): 0.305
- relative viability ([2]; first compound 0.3162 µM): 0.282
- relative viability ([2]; first compound 1 µM): 0.0927

Cell Line: Calu-6
- relative viability ([2]; first compound 0.01 µM): 0.568
- relative viability ([2]; first compound 0.03162 µM): 0.621
- relative viability ([2]; first compound 0.1 µM): 0.637
- relative viability ([2]; first compound 0.3162 µM): 0.64
- relative viability ([2]; first compound 1 µM): 0.577
- relative viability ([4]; first compound 0.04 µM): 0.952
- relative viability ([4]; first compound 0.1265 µM): 0.827
- relative viability ([4]; first compound 0.4 µM): 1.1
- relative viability ([4]; first compound 1.265 µM): 0.852
- relative viability ([4]; first compound 4 µM): 1.03
